The text below walks through data of patent US9328118B2, “Nitrogen-containing bicyclic aromatic heterocyclic compound” (ASTELLAS PHARMA INC., priority 2012, dated 2016).

Counter-ions that a name gives are not always drawn.

The target in one assay is human cathepsin S (Homo sapiens (Human), UniProt P25774). As to the kind of experiment: In vitro human cathepsin S inhibitory activity (VVR-AMC fluorescence). In kind it is biochemical. The following applies: human cathepsin S enzyme, substrate VVR-AMC 40 μM, pH 4.5, 37° C.; read-out: IC50 value of the human cathepsin S inhibitory activity (Data 1). As to the method: Test Example 1 Measurement of a In Vitro Human Cathepsin S Inhibitory Activity
Sequence of human cathepsin S (P25774 115-331): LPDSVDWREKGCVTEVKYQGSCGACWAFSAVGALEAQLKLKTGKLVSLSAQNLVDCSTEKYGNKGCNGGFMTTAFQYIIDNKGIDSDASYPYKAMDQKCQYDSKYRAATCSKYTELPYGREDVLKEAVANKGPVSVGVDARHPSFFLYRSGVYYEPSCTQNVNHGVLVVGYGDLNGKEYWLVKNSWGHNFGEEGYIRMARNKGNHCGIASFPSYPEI
5 μL of a human cathepsin S enzyme (R&D1183-CY-010) was added to a 96-well plate so as to be 20 ng/well. […] A reaction rate at the time of not adding an enzyme in which the test compound was not added and a reaction rate at the time of adding an enzyme in which the test compound was not added were set to 100% inhibition and 0% inhibition, respectively, then, an inhibition rate at each concentration was determined, and IC50 values were calculated by a linear regression method. In the Table, Ex represents Example compound No., and Data 1 represents an IC50 value (nM) of the human cathepsin S inhibitory activity.
By IC50 is commonly meant the point on the concentration scale where inhibition reaches its midpoint. Regarding `Cn1cnc2c(-c3cnc(OCCC4CCN(C(CF)CF)CC4)c(C(F)(F)F)c3)nc(C#N)nc21` [Example 145], the IC50 is 1 nM.
Regarding `CN1CCC[C@@H]1C(=O)N1CC[C@H](OCCOc2ncc(-c3nc(C#N)nc4c3ccn4C)cc2C(F)(F)F)C1` [Example 143, 7-methyl-4-[6-(2-{[(3S)-1-(1-methyl-D-prolyl)pyrrolidin-3-yl]oxy}ethoxy)-5-(trifluoromethyl)pyridin-3-yl]-7H-pyrrolo[2,3-d]pyrimidine-2-carbonitrile monofumarate], the IC50 stood at 1.5 nM.
As for `Cn1cnc2c(-c3cnc(OCCC4CCN(C(C)(C)C)CC4)c(C(F)(F)F)c3)nc(C#N)nc21` [Example 146], the IC50 turned out to be 3.2 nM.
Same read-out and setting: as for `Cn1ccc2c(-c3cnc(OCC4CCN(C(=O)C5CCN(C6CCOCC6)CC5)CC4)c(C(F)(F)F)c3)nc(C#N)nc21` [Example 160], the figure is 2.4 nM; as for `CC(C)N1CCC[C@H]1C(=O)N1CCC(COc2ncc(-c3nc(C#N)nc4c3ccn4C)cc2C(F)(F)F)CC1` [Example 156], 2.4 nM.
The same measure, in the same setting: as for `Cn1ccc2c(-c3cnc(OCC4CCN(CC(C)(C)O)CC4)c(C(F)(F)F)c3)nc(C#N)nc21` [Example 155], the figure is 1.5 nM.
Same read-out and setting: as for `Cn1ccc2c(-c3ccc(OCCC4C5CCC4CNC5)c(C(F)(F)F)c3)nc(C#N)nc21` (centres unmarked) [Example 38], the figure is 4.5 nM; as for `Cn1ccc2c(-c3cnc(OCCO[C@H]4CCNC4)c(C(F)(F)F)c3)nc(C#N)nc21` [Example 148], 2.8 nM; as for `Cn1ccc2c(-c3cnc(OCC4CCNCC4)c(C(F)(F)F)c3)nc(C#N)nc21` [Example 153], 1.6 nM.
In the case of `Cn1ccc2c(-c3cnc(OCCOC4CCNCC4)c(C(F)(F)F)c3)nc(C#N)nc21` [Example 147], the IC50 came to 2.4 nM.
As for `CCN1CCC(CCOc2ccc(-c3nc(C#N)nc4c3ccn4CCOC)cc2C(F)(F)F)CC1` [Example 13, 4-{4-[2-(1-ethylpiperidin-4-yl)ethoxy]-3-(trifluoromethyl)phenyl}-7-(2-methoxyethyl)-7H-pyrrolo[2,3-d]pyrimidine-2-carbonitrile monohydrochloride], the IC50 stood at 2.7 nM.
Same read-out and setting: as for `CCOc1ccc(-c2nc(C#N)nc3c2ccn3CC(=O)N2CCN(C)CC2)cc1C(F)(F)F` [Example 5, 4-[4-ethoxy-3-(trifluoromethyl)phenyl]-7-[2-(4-methylpiperazin-1-yl)-2-oxoethyl]-7H-pyrrolo[2,3-d]pyrimidine-2-carbonitrile], the figure is 4.2 nM; as for `Cc1nc2c(-c3ccc(OCCC4CCNCC4)c(C(F)(F)F)c3)nc(C#N)nc2n1C` [Example 10, 8,9-dimethyl-6-{4-[2-(piperidin-4-yl)ethoxy]-3-(trifluoromethyl)phenyl}-9H-purine-2-carbonitrile monohydrochloride], 2.7 nM; as for `CC(C)CN1CCC(CCOc2ncc(-c3nc(C#N)nc4c3ncn4C)cc2C(F)(F)F)CC1` [Example 144], 2.8 nM.
Still for that read-out and setting: as for `CN(C)C(=O)CN1CCC(CCOc2ccc(-c3nc(C#N)nc4c3ccn4CC3CCCO3)cc2C(F)(F)F)CC1` (centres unmarked) [Example 16, 2-[4-(2-{4-[2-cyano-7-(tetrahydrofuran-2-ylmethyl)-7H-pyrrolo[2,3-d]pyrimidin-4-yl]-2-(trifluoromethyl)phenoxy}ethyl)piperidin-1-yl]-N,N-dimethylacetamide monohydrochloride], the figure is 4.7 nM.
Same read-out and setting: the figure for `Cn1ccc2c(-c3ccc(OCCC4CCN(C5CC5)CC4)c(C(F)(F)F)c3)nc(C#N)nc21` [Example 14, 4-{4-[2-(1-cyclopropylpiperidin-4-yl)ethoxy]-3-(trifluoromethyl)phenyl}-7-methyl-7H-pyrrolo[2,3-d]pyrimidine-2-carbonitrile] is 2.3 nM; for `CC(C)N1CCC(CCOc2ncc(-c3nc(C#N)nc4c3ncn4C)cc2C(F)(F)F)CC1` [Example 139] it is 2.1 nM; for `CN1CCC[C@H]1C(=O)N1CC[C@H](OCCOc2ncc(-c3nc(C#N)nc4c3ccn4C)cc2C(F)(F)F)C1` [Example 150] it is 1.7 nM.
On to `CN1CCC[C@H]1C(=O)N1CC[C@@H](OCCOc2ncc(-c3nc(C#N)nc4c3ccn4C)cc2C(F)(F)F)C1` [Example 157], for which the IC50 is 2.1 nM.
For the molecule `CCN1CCCC(CCOc2ncc(-c3nc(C#N)nc4c3ccn4C)cc2C(F)(F)F)C1` (centres unmarked) [Example 12, 4-{6-[2-(1-ethylpiperidin-3-yl)ethoxy]-5-(trifluoromethyl)pyridin-3-yl}-7-methyl-7H-pyrrolo[2,3-d]pyrimidine-2-carbonitrile monohydrochloride], the IC50 was found to be 2.7 nM.
`CN1CCC[C@H]1C(=O)N1CCC(OCCOc2ncc(-c3nc(C#N)nc4c3ccn4C)cc2C(F)(F)F)CC1` [Example 149]: the IC50 amounted to 2.7 nM.
As for `Cn1ccc2c(-c3cnc(OCC4CCN(C(=O)[C@@H]5CCCN5)CC4)c(C(F)(F)F)c3)nc(C#N)nc21` [Example 154], the IC50 turned out to be 2.4 nM.
For `CN1CCN(C(=O)Cn2ccc3c(-c4ccc(OCCC5CCOCC5)c(C(F)(F)F)c4)nc(C#N)nc32)CC1` [Example 8, 7-[2-(4-methylpiperazin-1-yl)-2-oxoethyl]-4-{4-[2-(tetrahydro-2H-pyran-4-yl)ethoxy]-3-(trifluoromethyl)phenyl}-7H-pyrrolo[2,3-d]pyrimidine-2-carbonitrile monohydrochloride], the IC50 was 1.6 nM.
Still for that read-out and setting: as for `CCN1CCC(CCOc2ccc(-c3nc(C#N)nc4c3nc(C)n4C)cc2C(F)(F)F)CC1` [Example 11, 6-{4-[2-(1-ethylpiperidin-4-yl)ethoxy]-3-(trifluoromethyl)phenyl}-8,9-dimethyl-9H-purine-2-carbonitrile], the figure is 1.9 nM; as for `CN1CCC(CCOc2ncc(-c3nc(C#N)nc4c3ncn4C)cc2C(F)(F)F)CC1` [Example 136, 9-methyl-6-{6-[2-(1-methylpiperidin-4-yl)ethoxy]-5-(trifluoromethyl)pyridin-3-yl}-9H-purine-2-carbonitrile], 1.5 nM; as for `Cn1cnc2c(-c3cnc(OCCC4CCN5CCCC5C4)c(C(F)(F)F)c3)nc(C#N)nc21` (centres unmarked) [Example 142], 1.5 nM.
Regarding `CN(C)C(=O)N1CCC(CCOc2ccc(-c3nc(C#N)nc4c3ncn4C)cc2C(F)(F)F)CC1` [Example 7, 4-{2-[4-(2-cyano-9-methyl-9H-purin-6-yl)-2-(trifluoromethyl)phenoxy]ethyl}-N,N-dimethylpiperidine-1-carboxamide], the IC50 was 6.2 nM.
`Cn1ccc2c(-c3cnc(OCC4CCN(C(=O)C5CCNCC5)CC4)c(C(F)(F)F)c3)nc(C#N)nc21` [Example 159]: the IC50 stood at 2.7 nM.
Same read-out and setting: the figure for `Cn1cnc2c(-c3cnc(OCCC4CCN(C(=O)[C@@H]5CCCN5)CC4)c(C(F)(F)F)c3)nc(C#N)nc21` [Example 138] is 2.7 nM.

For a further assay, the system named is MHC class II expression in B220 positive B cells of mouse spleen cells. Kind of assay: In vitro MHC class II expression inhibitory effect using mouse spleen cells (LPS-stimulated B cells, flow cytometry). The class given is cell-based, C57BL/6 mice. Particulars: B-cell, C57BL/6 spleen cells, LPS 2 μg/mL, 48 hours, B220 positive B cells, read-out: IC50 value of MHC class II expression inhibition (Data 2). As to the method:
Test Example 2 Evaluation of In Vitro MHC Class II Expression Inhibitory Effect Using Mouse Spleen Cells (Cell Evaluation System)
In antigen-presenting cells, the inhibition of cathepsin S inhibits the expression of MHC class II molecules. […] For an increased expression of MI-IC class II in B cells, the inhibitory effect of the compound represented by formula (I) was examined.
First, spleen cells collected from C57BL/6 mice were seeded in a 96-well plate so as to be a 1×10^5 cells/well, then, 5-fold dilution of 10 mM DMSO solution of the test compound was serially performed with RPMI 1640 medium (including 10% fetal bovine serum (FCS), 5×10^−5 M 2-mercaptoethanol, 50 IU/mL penicillin and 50 μg/mL streptomycin) nine times such that the final concentration becomes 0.026 nM to 10 μM, and the resultant products were added thereto (the final DMSO concentration was 0.1%). At the same time, LPS (Sigma L4005) was added to the wells such that the final concentration becomes 2 μg/mL, and culture was performed at 37° C. for 48 hours in 5% CO2. After culturing, the cells were stained at 4° C. for 20 minutes with PE-labeled streptavidin (BD BIOSCIENCE 554061) and biotin-labeled YAe antibody (EBIOSCIENCE 13-5741-85) together with FITC-labeled anti-mouse B220 antibody (BD BIOSCIENCE 553088), and an expression level (fluorescence intensity of YAe-biotin/streptavidin-PE) of MHC class II to which Ea peptide in B220 positive B cells was bonded was measured using a flow cytometry system (Guava EasyCyte Plus System, manufactured by Millipore Corporation). A value at the time of unstimulation of LPS in which the test compound was not added and a value at the time of stimulation of LPS in which the test compound was not added were set to 100% inhibition and 0% inhibition, respectively, then, an inhibition rate at each concentration was determined, and IC50 values were calculated by a linear regression method. In the Table, Ex represents Example compound No., and Data 2 represents an IC50 value (nM).
Background: Flow cytometry measures light scatter and fluorescence of single cells or particles in a stream.
With `CN(C)C(=O)CN1CCC(CCOc2ccc(-c3nc(C#N)nc4c3ccn4CC3CCOC3)cc2C(F)(F)F)CC1` (centres unmarked) [Example 66], the IC50 is 2.1 nM.
Consider `Cn1cnc2c(-c3ccc(OCCC4CCNCC4)c(C(F)(F)F)c3)nc(C#N)nc21` [Example 19], for which the IC50 was determined as 0.7 nM.
The same measure, in the same setting: the figure for `CCN1CCC(CCOc2ncc(-c3nc(C#N)nc4c3ccn4CC3CCOC3)cc2C(F)(F)F)CC1` (centres unmarked) [Example 52] is 1.8 nM.
Consider `CCN1CCC(CCOc2ccc(-c3nc(C#N)nc4c3ccn4CCO)cc2C(F)(F)F)CC1` [Example 110], for which the IC50 is 0.91 nM.
Still for that read-out and setting: as for `Cn1ccc2c(-c3cnc(OCCC4CCNCC4)c(C(F)(F)F)c3)nc(C#N)nc21` [Example 116], the figure is 1.8 nM; as for `CN(C)C(=O)CN1CCC(CCOc2ccc(-c3nc(C#N)nc4c3ccn4CCO)cc2C(F)(F)F)CC1` [Example 21], 1 nM; as for `CCN1CCC(CCOc2ccc(-c3nc(C#N)nc4c3ncn4C)cc2C(F)(F)F)CC1` [Example 26], 0.61 nM.
Still for that read-out and setting: as for `N#Cc1nc(-c2ccc(OCCC3CCNCC3)c(C(F)(F)F)c2)c2ccn(CC3CCCO3)c2n1` (centres unmarked) [Example 58], the figure is 2 nM.
Take `CN1CCC[C@H]1C(=O)N1CCC(COc2ccc(-c3nc(C#N)nc4c3ccn4CC3CCOC3)cc2C(F)(F)F)CC1` (some centres unmarked) [Example 105]: the IC50 stood at 0.91 nM.
